Here are results for 27 molecules from patent US20230312587A1, “PTERIDINONE COMPOUNDS AND USES THEREOF” (Vertex Pharmaceutical Incorporated, priority 2018, published 2023).

The assay relates to β-catenin-TCF-mediated reporter transcription activity in Colo 205 cells. Kind of assay: Colo 205 reporter assay (TCF/LEF luciferase). Format: cell-based. The conditions noted are these: five hours after addition of compound. The method in brief:
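Luciferase signal from a TCF/LEF-driven reporter, stably integrated in Colo 205 colon cancer cells, was measured 5 h after compound addition.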
For orientation: Reporter assays use an easily measured gene product as a stand-in for the process of interest.

Setting [1] is: Homo sapiens, COLO 205, 5 h, Colo 205 TCF/LEF luciferase reporter, read-out: TCF reporter Colo205 IC50.
[2] abbreviates: Homo sapiens, COLO 205, 5 h, Colo 205 cells with stably transfected TCF/LEF luciferase reporter, read-out: TCF reporter Colo205.

Like-named read-outs stand apart in the source and are kept apart here. A value given as a limit tells only on which side of the number the result lay.

Consider `Cc1nc(N[C@H]2C[C@@H](COc3cnc(Cl)c(F)c3)C2)nc2c1NC(=O)[C@H](C)N2C` [Compound 367, (7S)-2-((cis-3-(((6-chloro-5-fluoropyridin-3-yl)oxy)methyl)cyclobutyl)amino)-4,7,8-trimethyl-7,8-dihydropteridin-6(5H)-one], for which, under setting [1], the IC50 is under 300 nM. Consider `Cc1nc(N[C@H]2C[C@H](COc3cc(C(F)(F)F)ccn3)C2)nc2c1NC(=O)[C@H](C)N2C` [Compound 369, (7S)-4,7,8-trimethyl-2-((trans-3-(((4-(trifluoromethyl)pyridin-2-yl)oxy)methyl)cyclobutyl)amino)-7,8-dihydropteridin-6(5H)-one], for which, under setting [1], the IC50 was at least 5000 nM.

For the molecule `COc1cc(O[C@H]2C[C@H](Nc3nc(C)c4c(n3)N(C)[C@@H](C)C(=O)N4)C2)ccc1F` [Compound 370, (7S)-2-((trans-3-(4-fluoro-3-methoxyphenoxy)cyclobutyl)amino)-4,7,8-trimethyl-7,8-dihydropteridin-6(5H)-one], the IC50 under setting [1] is under 300 nM.

With `Cc1nc(N[C@H]2CCN(Cc3ccccc3)C2)nc2c1NC(=O)[C@H](C)N2C` [Compound 371, (7S)-2-(((S)-1-benzylpyrrolidin-3-yl)amino)-4,7,8-trimethyl-7,8-dihydropteridin-6(5H)-one], under setting [1], the IC50 is at least 5000 nM. With `Cc1nc(N[C@@H]2CCN(Cc3ccccc3)C2)nc2c1NC(=O)[C@H](C)N2C` [Compound 372, (7S)-2-(((R)-1-benzylpyrrolidin-3-yl)amino)-4,7,8-trimethyl-7,8-dihydropteridin-6(5H)-one], under setting [1], the IC50 is at least 5000 nM. `COc1cc(O[C@H]2C[C@H](Nc3nc(C)c4c(n3)N(C)[C@@H](C)C(=O)N4C)C2)ccc1F` [Compound 373, (7S)-2-((trans-3-(4-fluoro-3-methoxyphenoxy)cyclobutyl)amino)-4,5,7,8-tetramethyl-7,8-dihydropteridin-6(5H)-one]: the IC50 under setting [1] is 300 to 1000 nM.

As for `Cc1nc(N[C@H]2CCN(Cc3ccc(F)cc3)C2)nc2c1NC(=O)[C@H](C)N2C` [Compound 374, (7S)-2-(((S)-1-(4-fluorobenzyl)pyrrolidin-3-yl)amino)-4,7,8-trimethyl-7,8-dihydropteridin-6(5H)-one], the IC50 under setting [1] was at least 5000 nM. Take `Cc1nc(N[C@H]2C[C@H](Oc3cc(F)c(F)c(F)c3)C2)nc2c1N(CCF)C(=O)[C@H](C)N2C` [Compound 381, (7S)-5-(2-fluoroethyl)-4,7,8-trimethyl-2-((trans-3-(3,4,5-trifluorophenoxy)-cyclobutyl)-amino)-7,8-dihydropteridin-6(5H)-one]: the IC50 under setting [1] was in the range of 300 to 1000 nM. On to `Cc1nc(NCc2cnn(C(C)c3ccc(F)cc3)c2)nc2c1NC(=O)[C@H](C)N2C` (stereo partly drawn) [Compound 382, (7S)-2-(((1-(1-(4-fluorophenyl)ethyl)-1H-pyrazol-4-yl)methyl)amino)-4,7,8-trimethyl-7,8-dihydropteridin-6(5H)-one], for which the IC50 under setting [1] is under 300 nM.

As for `C=C(C)c1nc(C(F)(F)F)ccc1Cn1cc(CNc2nc(C)c3c(n2)N(C)[C@@H](C)C(=O)N3)cn1` [Compound 387, (7S)-4,7,8-Trimethyl-2-(((1-((2-(prop-1-en-2-yl)-6-(trifluoromethyl)pyridin-3-yl)methyl)-1H-pyrazol-4-yl)methyl)amino)-7,8-dihydropteridin-6(5H)-one], the IC50 under setting [1] is under 300 nM. As to `CC[C@H]1C(=O)Nc2c(C)nc(NCc3cnn(Cc4ccc(F)nc4)c3)nc2N1C` [Compound 389, (7S)-7-Ethyl-2-(((1-((6-fluoropyridin-3-yl)methyl)-1H-pyrazol-4-yl)methyl)amino)-4,8-dimethyl-7,8-dihydropteridin-6(5H)-one], the IC50 under setting [1] is under 300 nM. Turning to `Cc1nc(NCc2cnn(Cc3ccc(OCC(F)(F)F)nc3)c2)nc2c1NC(=O)[C@H](C)N2C` [Compound 390, (7S)-4,7,8-trimethyl-2-(((1-((6-(2,2,2-trifluoroethoxy)pyridin-3-yl)methyl)-1H-pyrazol-4-yl)methyl)amino)-7,8-dihydropteridin-6(5H)-one], the IC50 under setting [1] was under 300 nM. In the case of `CC[C@H]1C(=O)Nc2c(C)nc(NCc3cnn(Cc4cnc(F)c(OC)c4)c3)nc2N1C` [Compound 394, (7S)-7-Ethyl-2-(((1-((6-fluoro-5-methoxypyridin-3-yl)methyl)-1H-pyrazol-4-yl)methyl)amino)-4,8-dimethyl-7,8-dihydropteridin-6(5H)-one], the IC50 under setting [1] was under 300 nM. On to `[2H]C([2H])([2H])N1c2nc(NCc3cnn(Cc4ccc(C(F)(F)F)nc4)c3)nc(C)c2NC(=O)[C@@H]1C` [Compound 400, (7S)-4,7-dimethyl-8-(methyl-d3)-2-(((1-((6-(trifluoromethyl)pyridin-3-yl)methyl)-1H-pyrazol-4-yl)methyl)amino)-7,8-dihydropteridin-6(5H)-one], for which the IC50 under setting [2] is under 300 nM. Consider `Cc1nc(N(Cc2cnn(Cc3ccc(C(F)(F)F)nc3)c2)C(=O)NC2CCCCC2)nc2c1NC(=O)[C@H](C)N2C` [Compound 401, (7S)-3-cyclohexyl-1-((1-((6-(trifluoromethyl)pyridin-3-yl)methyl)-1H-pyrazol-4-yl)methyl)-1-(4,7,8-trimethyl-6-oxo-5,6,7,8-tetrahydropteridin-2-yl)urea], for which, under setting [2], the IC50 was at least 5000 nM. Still for that read-out and setting: the figure for `Cc1nc(N(Cc2cnn(Cc3ccc(C(F)(F)F)nc3)c2)C(=O)[C@@H](N)C(C)C)nc2c1NC(=O)[C@H](C)N2C` [Compound 402, (S)-2-amino-3-methyl-N-((1-((6-(trifluoromethyl)pyridin-3-yl)methyl)-1H-pyrazol-4-yl)methyl)-N-((S)-4,7,8-trimethyl-6-oxo-5,6,7,8-tetrahydropteridin-2-yl)butanamide] is at least 5000 nM.

Regarding `CC(=O)NCCCC[C@H](N)C(=O)N(Cc1cnn(Cc2ccc(C(F)(F)F)nc2)c1)c1nc(C)c2c(n1)N(C)[C@@H](C)C(=O)N2` [Compound 404, (7S)-6-acetamido-2-amino-N-((1-((6-(trifluoromethyl)pyridin-3-yl)methyl)-1H-pyrazol-4-yl)methyl)-N-((S)-4,7,8-trimethyl-6-oxo-5,6,7,8-tetrahydropteridin-2-yl)hexanamide], for the setting “Colo 205 cells with stably transfected TCF/LEF luciferase reporter, read-out: TCF reporter Colo205”, the IC50 is at least 5000 nM. Turning to `Cc1nc(N(Cc2cnn(Cc3ccc(C(F)(F)F)nc3)c2)C(=O)CN)nc2c1NC(=O)[C@H](C)N2C` [Compound 406, (7S)-2-amino-N-((1-((6-(trifluoromethyl)pyridin-3-yl)methyl)-1H-pyrazol-4-yl)methyl)-N-(4,7,8-trimethyl-6-oxo-5,6,7,8-tetrahydropteridin-2-yl)acetamide], the IC50 under setting [2] was at least 5000 nM. In the case of `COC(=O)N(Cc1cnn(Cc2ccc(C(F)(F)F)nc2)c1)c1nc(C)c2c(n1)N(C)[C@@H](C)C(=O)N2` [Compound 407, methyl (7S)-((1-((6-(trifluoromethyl)pyridin-3-yl)methyl)-1H-pyrazol-4-yl)methyl)(4,7,8-trimethyl-6-oxo-5,6,7,8-tetrahydropteridin-2-yl)carbamate], the IC50 under setting [2] was at least 5000 nM. Same read-out and setting: then `Cc1nc(N(Cc2cnn(Cc3ccc(C(F)(F)F)nc3)c2)C(=O)OC(C)OC(=O)C(C)C)nc2c1NC(=O)[C@H](C)N2C` (stereo partly drawn) [Compound 408, 1-((((1-((6-(trifluoromethyl)pyridin-3-yl)methyl)-1H-pyrazol-4-yl)methyl)((7S)-4,7,8-trimethyl-6-oxo-5,6,7,8-tetrahydropteridin-2-yl)carbamoyl)oxy)ethyl isobutyrate], with under 300 nM. As to `CC(=O)c1nc(C(F)(F)F)ccc1Cn1cc(CNc2nc(C)c3c(n2)N(C)[C@@H](C)C(=O)N3)cn1` [Compound 413, (7S)-2-(((1-((2-acetyl-6-(trifluoromethyl)pyridin-3-yl)methyl)-1H-pyrazol-4-yl)methyl)amino)-4,7,8-trimethyl-7,8-dihydropteridin-6(5H)-one], the IC50 under setting [1] is under 300 nM. `Cc1nc(NCc2cnn(Cc3ccc(Cl)nc3)c2)nc2c1NC(=O)[C@H](C(C)C)N2C` [Compound 414, (7S)-2-(((1-((6-chloropyridin-3-yl)methyl)-1H-pyrazol-4-yl)methyl)amino)-7-isopropyl-4,8-dimethyl-7,8-dihydropteridin-6(5H)-one]: the IC50 under setting [1] was under 300 nM. Consider `CC[C@H]1C(=O)Nc2c(C)nc(NCc3cnn(Cc4ccc(OC(F)F)nc4)c3)nc2N1C` [Compound 417, (7S)-2-(((1-((6-(difluoromethoxy)pyridin-3-yl)methyl)-1H-pyrazol-4-yl)methyl)amino)-7-ethyl-4,8-dimethyl-7,8-dihydropteridin-6(511)-one], for which the IC50 (Colo 205 TCF/LEF luciferase reporter, read-out: TCF reporter Colo205 IC50) is under 300 nM. As to `Cc1nc(NCc2cnn(Cc3ccc(OC(F)F)nc3)c2)nc2c1NC(=O)[C@H](C(C)C)N2C` [Compound 422, (7S)-2-(((1-((6-(difluoromethoxy)pyridin-3-yl)methyl)-1H-pyrazol-4-yl)methyl)amino)-7-isopropyl-4,8-dimethyl-7,8-dihydropteridin-6(5H)-one], under setting [1], the IC50 is under 300 nM. Same read-out and setting: then `CC[C@H]1C(=O)Nc2c(C)nc(NCc3cnn(Cc4cnc(Cl)c(F)c4)c3)nc2N1C` [Compound 426, (7S)-2-(((1-((6-chloro-5-fluoropyridin-3-yl)methyl)-1H-pyrazol-4-yl)methyl)amino)-7-ethyl-4,8-dimethyl-7,8-dihydropteridin-6(5H)-one], with under 300 nM; and `COc1ccc(Cn2cc(CNc3nc(C)c4c(n3)N(C)[C@@H](C(C)C)C(=O)N4)cn2)cn1` [Compound 429, (7S)-7-isopropyl-2-(((1-((6-methoxypyridin-3-yl)methyl)-1H-pyrazol-4-yl)methyl)amino)-4,8-dimethyl-7,8-dihydropteridin-6(5H)-one], with under 300 nM; and `CC[C@H]1C(=O)Nc2c(C)nc(NCc3cnn(Cc4ccc(Cl)nc4)c3)nc2N1C` [Compound 432, (7S)-2-(((1-((6-chloropyridin-3-yl)methyl)-1H-pyrazol-4-yl)methyl)amino)-7-ethyl-4,8-dimethyl-7,8-dihydropteridin-6(5H)-one], with under 300 nM.
